This note sets out measurements from US11661439B2, “Peptide hydrogels and use thereof” (The United States of America, as represented by the …, priority 2017, dated 2023).

Data set [1] relates to human dermal fibroblasts (HDFs). Nature of the data set: 2D cell culture of HDFs on gel surfaces. It is filed as cell-based. Particulars: Essential 8 Medium or serum-free DMEM. On the procedure:
2D cell culture on peptide gels. Peptides were initially dissolved in water at 1 wt % on ice and mixed with an equal volume of ice-cold 2×HEPES buffer (50 mM HEPES, 300 mM NaCl, pH 7.4). The peptide solution (50 μL per well) was transferred to a non-tissue culture treated 96-well plates and incubated at 37° C. to initiate gelation. After 1 hour, HDFs (2×10^4 cells per 200 μL, per well) in serum-free DMEM, 10% FBS supplemented DMEM, or Essential 8 Medium (Thermo Fisher Scientific) were seeded on the peptide gels and cultured for 4 days. Bovine type I collagen gels (0.3 wt %, 50 μL per well) were prepared in 96-well plates following manufacturer's instructions.
Cell viability assay. Cell viability was evaluated by live and dead cell staining after 2D and 3D cell culture. Serum-free DMEM containing 1 μM calcein-AM and 2 μM ethidium homodimer-1 was added to the cells (200 μL per well for 2D culture and 500 μL each to the top and bottom of the gels for 3D culture). After incubation at 37° C. for 30 min, live and dead cells were visualized using EVOS FL Auto Cell Imaging System (Thermo Fisher Scientific). For the pseudo-colored composite image of varying heights of encapsulated cells, images of the live-stained cells were captured every 5 μm of height. Then Z-stack images for each 100 μm were flattened using the EVOS software, and the flattened images were pseudo-colored and merged using ImageJ.
Cell proliferation assay. A cell proliferation assay was performed using Cell Counting Kit-8 (CCK-8, Dojindo Molecular Technologies) for 2D and 3D cell culture. Serum-free DMEM containing 10% CCK-8 was added to the gels (200 μL per well for 2D culture; 500 μL to the top of the gels for 3D culture) and incubated for 2 hours at 37° C. Subsequently, media were transferred to 96-well plates (150 μL per well) and their absorbance measured at 450 nm relative to control viabilities from day 0 for 2D cell culture and day 1 for 3D cell culture. Experiments were performed in triplicate.
Cytoskeleton staining. For 2D cell culture, the peptide and collagen gels (70 μL) were prepared as described above on the glass bottom of 35 mm dishes (7 mm glass diameter, MatTek). HDFs in Essential 8 Medium (1.5×10^5 cells per 3 mL) were added to the dishes and incubated at 37° C. for 24 hours. Cells were fixed and permeabilized with 4% paraformaldehyde and 0.1% Triton X-100 in PBS for 15 min, and then blocked with 1% BSA in PBS. Cells were incubated with anti-vinculin antibody (hVIN-1, Sigma) for 1 hour at room temperature. Then, a goat anti-mouse IgG (H+L) cross-adsorbed secondary antibody, Rhodamine Red-X (2 μg mL^−1, Thermo Fisher Scientific), Alexa Fluor 488 phalloidin (5 units mL^−1, Thermo Fisher Scientific), and Hoechst 33342 (5 μg mL^−1, Invitrogen) in PBS were added to the dishes and incubated for 1 hour at room temperature. After washing, cells were visualized using an EVOS FL Auto Cell Imaging System.

Data set [2] is described as follows: TEM analysis of peptide fibrils. The class given is physicochemical. Particulars: 30 independent measurements. On the procedure:
FIG. 4. Fibril visualization of β-hairpin peptide hydrogels. Transmission Electron Microscopy (TEM) images of peptide fibrils and frequency distributions determined from 30 independent measurements (scale bar=100 nm).
Transmission electron microscopy (TEM) analysis. The hydrogel nanostructure of the peptide gels was observed using a Hitachi H-7650 transmission electron microscope at a voltage of 80 kV. A 1 wt % solution of peptide and an equal volume of buffer (50 mM HEPES containing 300 mM NaCl, pH 7.4) was mixed and incubated overnight at 37° C. to allow for gelation. The next day, samples for TEM analysis were prepared by suspending 5 μL of the resulting peptide gel in 195 μL of water to yield a 40-fold dilution. Small amounts (5 μL) of each diluted gel solution were applied to separate carbon coated copper grids. After 1 min, the grid was washed with water. Then, a 1 w/v % uranyl acetate aqueous solution was placed on each grid for negative staining. Excess staining solution was blotted away, left to air dry, and the grids were imaged immediately.

The nature of data set [3]: Oscillatory rheology of protein-loaded AcVES3 hydrogels. The class given is physicochemical. Particulars: at 60 min; 0.5 wt % AcVES3 hydrogel loaded with protein. Here is the method:
FIGS. 12A and 12B. […] (12A) Dynamic time sweep experiments. Hydrogels were set for 60 min, followed by 30 s of high strain, then a recovery period of 60 min. (12B) Storage moduli after 60 min. Bars outlined in black represent post shear storage moduli after 60 min recovery.
Oscillatory Rheology. Rheological assessment was conducted on a […] AR-G2 rheometer using a 25 mm stainless steel parallel geometry. A representative set of proteins was used to determine whether the fusion domain affected the material properties of the AcVES3 hydrogels. […] This solution was immediately applied to the center of the plate and the upper geometry was lowered to a gap height of […]. The temperature was increased from 5° C. to 37° C. over 100 s at a constant angular frequency of 6 rad s^−1 and 0.2% strain. The storage and loss moduli were monitored for 60 min at a constant angular frequency of 6 rad s^−1 and 0.2% strain at 37° C. […] The moduli were monitored for 60 min (6 rad s^−1, 0.2% strain, 37° C.), followed by the application of 1000% strain for 30 s to shear the gel, after which the strain was reduced to 0.2% and the gel was allowed to recover for 60 min (6 rad s^−1, 0.2% strain).

As to Ac-VEVSVSVEV^DPPTEVSVEVEV-NH2 [AcVES3], the “cell adhesion of HDFs on gel surface” value in data set [1] (day 1) is on record as “adhered”; in data set [1] (day 4), “most of the cells detached”. Further, the average fibril width in data set [2] amounted to 3.1±0.4 nm.

For the substance “EGFP: fluorescent protein EGFP, SEQ ID NO: 19, model heterologous protein with net negative charge”, the storage moduli in data set [3] is listed as ~1000 Pa.
